Laboratory results: patent EP4745128A1, “COMPOUND, PHARMACEUTICAL COMPOSITION COMPRISING SAME, AND USE THEREOF” (Shenzhen Zhongge Biological Technology Co., Ltd., priority 2023, dated 2025)

Assays:
[1] = Phase 1 data from healthy subjects; cited from earlier work
[2] = test system: HEK293T/17-ATF4 uORF-Luc-Puro monoclonal cells; experiment: Cellular activity assay: ATF4 luciferase reporter, thapsigargin-induced stress; type: cell-based; details: Homo sapiens, HEK-293T; ATF4 reporter expression; 50 nM thapsigargin, 6 h incubation
From the text: The ATF4 luciferase reporter plasmid consists of two components: the 5' untranslated region sequence of the ATF4 gene and the luciferase encoding sequence. Specifically, the ATF4 5' untranslated region sequence (NCBI Database accession number BC022088.2) containing two upstream open reading frames (uORFs) and the firefly luciferase encoding gene were cloned into the pLVX-Puro vector (Unibio, VT1465). The packaging plasmids for lentivirus are psPAX2 (Unibio, VT1444) and pMD2.G (Unibio, VT1443). The three plasmids above were co-transfected into HEK293T/17 cells using X-tremeGENE 9 DNA transfection reagent, and the lentivirus-containing culture medium was collected 48 hours post-transfection. The HEK293T/17 cells transduced with the lentivirus were selected using 1 µg/mL puromycin, followed by obtaining a monoclonal cell line via limited dilution.
Using this cell line, the translational regulation of ATF4 can be detected via […], and the activity of the eIF2B activator can be tested. The specific experimental procedure was as follows: Seed 6,000 HEK293T/17-ATF4 uORF-Luc-Puro monoclonal cells in a 384-well plate and allow the cells to adhere overnight. The test compounds were dissolved in DMSO and added along with 50 nM thapsigargin into the cell culture medium, followed by incubation for 6 h. Thapsigargin was used to induce cellular stress, thereby upregulating translation of the ATF4 protein. After 6 hours of treatment, cells were lysed using the One-Glo Luciferase Assay Kit (Promega #E6120), then the luminescence values were measured using the LUM program of the EnVision 2104 plate reader.
The relative expression level of the ATF4 reporter gene (ATF4 reporter expression %) was calculated as follows: • ATF4 reporter expression %=(ave_sample-ave_vc)/(ave_pc-ave_vc)*100%. • ave_vc: mean signal value of negative control • ave_pc: mean signal value of positive control • ave_sample: mean signal value of sample
The EC50 value was calculated by fitting a dose-response curve: • The correspondence between the relative expression level of the ATF4 reporter gene and the compound concentration was fitted using the nonlinear regression log(inhibitor) vs. response - variable slope (four parameters) approach in GraphPad 9 software. • X axis: log of compound concentration; Y: relative expression level of ATF4 reporter gene. • Y = Bottom + (Top−Bottom)/(1+10^(∧)((LogEC50−X)*HillSlope)) [formula]

[3] = test system: mouse models; details: cited from earlier work
[4] = Pharmacokinetic assessment in mice; type: in vivo; details: plasma
Description: The test compound was dissolved in a solvent to prepare a clear solution or homogeneous suspension. Three mice per group were administered 1 mg/kg intravenously in the tails and 30 mg/kg orally (PO). Blood samples were collected at 0.083 h, 0.25 h, 0.5 h, 1 h, 2 h, 4 h, 8 h, and 24 h post intravenous administration, and at 0.25 h, 0.5 h, 1 h, 2 h, 4 h, 6 h, 8 h, and 24 h post oral administration. Plasma samples were centrifuged to obtain the supernatant, which was prepared as samples for quantitative analysis by LC/MS/MS. Table 2 PK Properties of Exemplary Compound 3 in Mice

[5] = test system: model animals; details: after three days of oral administration; cited from earlier work

Q: Which safety and tolerability [1] does the source give for O=C(COc1ccc(Cl)cc1)NC12CC(c3nnc([C@H]4C[C@@H](OC(F)(F)F)C4)o3)(C1)C2 [DNL-343] here?
A: safe and well-tolerated

Q: Which EC50 [2] does the source give for O=C(COc1ccc(Cl)c(F)c1)N[C@H]1CC[C@H](Nc2nccnc2O[C@H]2C[C@@H](OC(F)(F)F)C2)CC1 [Compound 1] here?
A: 10 to 100 nM

Q: With O=C(COc1ccc(Cl)c(F)c1)N[C@H]1CC[C@H](Nc2ncccc2O[C@H]2C[C@@H](OC(F)(F)F)C2)CC1 [Compound 2] as the molecule, how does the EC50 [2] read?
A: > 100 nM

Q: Which long-term memory [3] does the source give for O=C(COc1ccc(Cl)cc1)NC1CCC(NC(=O)COc2ccc(Cl)cc2)CC1 (stereo not drawn) [ISRIB] here?
A: improve long-term memory

Q: Which EC50 [2] does the source give for FC(F)(F)OC1CN(c2nnc([C@H]3CC[C@H](Nc4nccnc4O[C@H]4C[C@@H](OC(F)(F)F)C4)CC3)o2)C1 [Compound 4] here?
A: > 100 nM

Q: Which AUC(0-t) ([4]; mouse IV (1 mg/kg)) does the source give for O=C(CO[C@H]1C[C@@H](OC(F)(F)F)C1)NC12CC(Nc3nccnc3O[C@H]3C[C@@H](OC(F)(F)F)C3)(C1)C2 [Compound 3] here?
A: 6.32 µg·h/mL

Q: And the C0 ([4]; mouse IV (1 mg/kg))?
A: 2620 ng/mL

Q: And the clearance ([4]; mouse IV (1 mg/kg))?
A: 2.49 mL/min/kg

Q: And the half-life ([4]; mouse IV (1 mg/kg))?
A: 7.37 h

Q: And the Vd ([4]; mouse IV (1 mg/kg), read-out: Vss)?
A: 1410 L/kg

Q: What about the AUC(0-t) ([4]; mouse PO (30 mg/kg)) of the same molecule?
A: 217 µg·h/mL

Q: And the Cmax ([4]; mouse PO (30 mg/kg))?
A: 20100 ng/mL

Q: What about the Tmax ([4]; mouse PO (30 mg/kg)) of the same molecule?
A: 2.33 h

Q: What about the bioavailability ([4]; mouse PO (30 mg/kg)) of the same molecule?
A: 114%

Q: And the half-life ([4]; mouse PO (30 mg/kg))?
A: 8.52 h

Q: And the EC50 [2]?
A: 1 to 10 nM

Q: With NC(CO)(CO)CO.O=C(COc1ccc(Cl)c(F)c1)NC12CCC(NC(=O)COc3ccc(Cl)c(F)c3)(CC1)[C@@H](OCOP(=O)([O-])O)C2.[Na+] [ABBV-CLS-7262] as the molecule, how does the brain function [5] read?
A: restored to youthful levels

Q: Which EC50 [2] does the source give for O=C(CO[C@H]1C[C@@H](OC(F)(F)F)C1)N[C@H]1CC[C@H](Nc2nccnc2O[C@H]2C[C@@H](OC(F)(F)F)C2)CC1 [Compound 5] here?
A: > 100 nM
